# Data published in article PMC4348164, “Evidence of more ion channels inhibited by celecoxib: KV1.3 and L-type Ca^2+ channels” (BMC Research Notes, 2015).
# Target: T1, human KV1.3 channels (Homo sapiens, UniProt P22001)
# T1 construct: gene KCNA3; homotetramer
# Test: whole-cell patch clamp, CHO cells
# Type: cell-based
# T1 sequence (P22001 whole entry): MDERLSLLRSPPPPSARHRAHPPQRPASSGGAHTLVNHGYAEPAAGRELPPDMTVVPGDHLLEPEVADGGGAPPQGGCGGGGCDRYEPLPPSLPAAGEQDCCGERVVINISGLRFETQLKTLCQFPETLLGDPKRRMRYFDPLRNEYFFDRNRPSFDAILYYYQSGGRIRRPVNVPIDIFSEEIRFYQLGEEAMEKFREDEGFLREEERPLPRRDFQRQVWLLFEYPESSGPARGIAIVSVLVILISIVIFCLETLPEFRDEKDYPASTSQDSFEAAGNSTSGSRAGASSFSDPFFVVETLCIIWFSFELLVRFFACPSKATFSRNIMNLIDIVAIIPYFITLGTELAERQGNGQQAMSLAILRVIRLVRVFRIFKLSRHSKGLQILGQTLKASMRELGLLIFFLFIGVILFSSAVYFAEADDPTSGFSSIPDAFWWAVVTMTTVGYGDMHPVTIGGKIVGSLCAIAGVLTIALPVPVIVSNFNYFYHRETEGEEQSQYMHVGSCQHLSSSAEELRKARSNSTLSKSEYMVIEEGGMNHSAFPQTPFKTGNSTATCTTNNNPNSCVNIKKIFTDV
smiles,measurement,value
Cc1ccc(-c2cc(C(F)(F)F)nn2-c2ccc(S(N)(=O)=O)cc2)cc1 [celecoxib],IC50,5 µM
